Measured values taken from ChEMBL document CHEMBL1157225, “Highly N-methylated linear peptides produced by an atypical sponge-derived Acremonium sp” (2006).
Converted amounts (≈) assume the structure as drawn. Where a SMILES comes first, the peptide text is derived from it. [ ]: non-standard residue; d: D form. The star is where a group is joined. X1 = CC(C)C[C@@H](C[N+]1=C2CCCN2CCC1)N*; Pip = O=C(O)[C@@H]1CCCCN1; Iva = CC[C@](C)(N)C(=O)O; Aib = CC(C)(N)C(=O)O; βAla = NCCC(=O)O

Key:
[1] = tested on: Staphylococcus epidermidis; assay: Antimicrobial activity against Staphylococcus epidermidis; format: functional
L1210 = assay: Cytotoxicity against mouse L1210 cells relative to efrapeptin G; format: functional
[2] = Staphylococcus epidermidis, read-out: MIC

Row | MIC [1] | SMILES | MIC [1, 2] | Activity (L1210)
1 |  | CC[C@H](C)[C@H](NC(=O)[C@H](C(C)C)N(C)C(=O)[C@H](CC(C)C)N(C)C(=O)[C@@H](NC(=O)[C@@H](CCC(N)=O)NC(C)=O)C(C)C)C(=O)N(C)[C@H](C(=O)N(C)[C@H](C(=O)N(C)[C@H](C(=O)O)[C@@H](C)CC)[C@@H](C)CC)[C@@H](C)CC | > 400 µg/mL | 1
2 | 50 µg/mL (≈ 48.2 µM) | CC[C@H](C)[C@H](NC(=O)[C@H](CC(C)C)N(C)C(=O)[C@@H](NC(=O)[C@@H](CCC(N)=O)NC(C)=O)[C@@H](C)CC)C(=O)N(C)[C@H](C(=O)N(C)[C@H](C(=O)N(C)[C@H](C(=O)N(C)[C@H](C(=O)O)[C@@H](C)CC)[C@@H](C)CC)[C@@H](C)CC)C(C)C | 25 µg/mL (≈ 24.1 µM) | 
3 |  | CN[C@H](CC(C)C)C(=O)N[C@H]1C(=O)N[C@@H](CC(N)=O)C(=O)N[C@H]2C(=O)N[C@H]3C(=O)N[C@H](C(=O)N[C@H](C(=O)O)c4cc(O)cc(O)c4-c4cc3ccc4O)[C@H](O)c3ccc(c(Cl)c3)Oc3cc2cc(c3O[C@@H]2O[C@H](CO)[C@@H](O)[C@H](O)[C@H]2O[C@H]2C[C@](C)(N)[C@H](O)[C@H](C)O2)Oc2ccc(cc2Cl)[C@H]1O [VANCOMYCIN] | 0.63 µg/mL (≈ 0.435 µM) | 
4 |  | CC[C@](C)(NC(=O)[C@H](CC(C)C)NC(=O)[C@H](C)NC(=O)C(C)(C)NC(=O)[C@@H]1CCCCN1C(=O)C(C)(C)NC(=O)C(C)(C)NC(=O)CNC(=O)CCNC(=O)[C@H](CC(C)C)NC(=O)C(C)(C)NC(=O)[C@](C)(CC)NC(=O)[C@@H]1CCCCN1C(=O)C(C)(C)NC(=O)[C@@H]1CCCCN1C(C)=O)C(=O)N[C@@H](CC(C)C)C[N+]1=C2CCCN2CCC1 [EFRAPEPTIN G] (Ac-[Pip][Aib][Pip][Iva][Aib]L[βAla]G[Aib][Aib][Pip][Aib]AL[Iva]-X1) | 80 µg/mL | 3300
